Converted amounts (≈) assume the structure as drawn. Positions of bridges follow the written chain, without caps; N, C: chain ends. Non-standard residues stand in square brackets, D forms with d. Residues, ends and D or L forms follow the SMILES beside them. S5 = C=CCCC[C@](C)(N)C(=O)O; Pra = C#CC[C@H](N)C(=O)O; Dap = NC[C@H](N)C(=O)O
Columns and labels:
in vitro = assay type: cell-based; conditions: human, Inhibitory Concentration at 50% Cytotoxicity (IC50) Human Liver Cells (HepG2)
Summary of the method: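 HepG2 cells in EMEM with 10% FBS, allowed 4 h to attach, then exposed to serial dilutions of StAMPs (from a 5 mg/mL water stock) or vehicle. After 48 h at 37 °C, viability read by CellTiter-Glo luminescence.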

K. pneumoniae = assay type: cell-based, Klebsiella pneumoniae
Summary of the method: (§1)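 Broth microdilution adapted from CLSI in Mueller-Hinton broth or cation-adjusted MHB. Overnight 37 °C cultures were regrown 3-4 h, then added to serially diluted peptide at a final 5×10^5 CFU/ml. After 20-24 h at 37 °C, MIC was the lowest peptide concentration with no visible growth.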

P. aeruginosa = assay type: cell-based, Pseudomonas aeruginosa
Summary of the method: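 Broth microdilution adapted from CLSI in MHB or cation-adjusted MHB; log-phase P. aeruginosa at 5×10^5 CFU/ml final with serially diluted stapled peptides. Incubated 20-24 h at 37 °C; MIC is the lowest concentration without visible growth.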

A. baumannii = assay type: cell-based, Acinetobacter baumannii
Summary of the method: as §1

S. aureus = assay type: cell-based, Staphylococcus aureus
Summary of the method: as §1

E. coli = assay type: cell-based, Escherichia coli
Summary of the method: as §1

| Structure (SMILES) | IC50 at 48 hours (in vitro) | Minimum Inhibitory Concentration (MIC) K. pneumoniae (K. pneumoniae) | Minimum Inhibitory Concentration (MIC) P. aeruginosa (P. aeruginosa) | Minimum Inhibitory Concentration (MIC) A. baumannii (A. baumannii) | Minimum Inhibitory Concentration (MIC) S. aureus (S. aureus) | Minimum Inhibitory Concentration (MIC) E. coli (E. coli) |
| --- | --- | --- | --- | --- | --- | --- |
| CC(C)[C@@H]1NC(=O)[C@@](C)(NC(=O)[C@H](C)NC(=O)[C@H](CCCCN)NC(=O)CNC(=O)[C@H](Cc2ccccc2)NC(=O)[C@H](CCCCN)NC(=O)[C@H](CCCCN)NC(=O)[C@H](CCCCN)NC(=O)[C@H](CCCCN)NC(=O)[C@H](CN)NC(=O)[C@]2(C)CCCC=CCCC[C@](C)(NC(=O)CN)C(=O)NCC(=O)N[C@@H](CCCCN)C(=O)N[C@@H](Cc3ccccc3)C(=O)N2)CCCC=CCCC[C@@](C)(C(=O)N[C@@H](C)C(=O)N[C@@H](CCCCN)C(=O)N[C@@H](CCCCN)C(N)=O)NC(=O)[C@H](CCC(=O)O)NC(=O)[C@H](CO)NC1=O [compound 88] (H-G[S5]GKF[S5][Dap]KKKKFGKA[S5]VSE[S5]AKK-NH2; staple 2-6, 16-20) | 168 µg/mL (≈ 65.8 µM) | 32 µg/mL | 1 µg/mL | 1 µg/mL | >64 µg/mL | 1 µg/mL |
| CC(C)[C@@H]1NC(=O)[C@@](C)(NC(=O)[C@H](C)NC(=O)[C@H](CCCCN)NC(=O)CNC(=O)[C@H](Cc2ccccc2)NC(=O)[C@H](CCCCN)NC(=O)[C@H](CCCCN)NC(=O)[C@H](CCCCN)NC(=O)[C@H](CCCCN)NC(=O)[C@H](CN)NC(=O)[C@]2(C)CCCC=CCCC[C@](C)(NC(=O)CN)C(=O)NCC(=O)N[C@@H](CCCCN)C(=O)N[C@@H](Cc3ccccc3)C(=O)N2)CCCC=CCCC[C@@](C)(C(=O)N[C@@H](CO)C(=O)N[C@@H](CCCCN)C(=O)N[C@@H](CCCCN)C(N)=O)NC(=O)[C@H](CCC(=O)O)NC(=O)CNC1=O [compound 89] (H-G[S5]GKF[S5][Dap]KKKKFGKA[S5]VGE[S5]SKK-NH2; staple 2-6, 16-20) | 199 µg/mL (≈ 78.4 µM) | 32 µg/mL | 1 µg/mL | 1 µg/mL | 64 µg/mL | 2 µg/mL |
| CC(C)[C@@H]1NC(=O)[C@@](C)(NC(=O)[C@H](C)NC(=O)[C@H](CCCCN)NC(=O)CNC(=O)[C@H](Cc2ccccc2)NC(=O)[C@H](CCCCN)NC(=O)[C@H](CCCCN)NC(=O)[C@H](CCCCN)NC(=O)[C@H](CO)NC(=O)[C@H](CCCCN)NC(=O)[C@]2(C)CCCC=CCCC[C@](C)(NC(=O)CN)C(=O)NCC(=O)N[C@@H](CCCCN)C(=O)N[C@@H](Cc3ccccc3)C(=O)N2)CCCC=CCCC[C@@](C)(C(=O)N[C@@H](C)C(=O)N[C@@H](CCCCN)C(=O)N[C@@H](CCCCN)C(=O)NCC(=O)NCC(=O)N[C@@H](CCC(=O)O)C(N)=O)NC(=O)[C@H](CCC(=O)O)NC(=O)CNC1=O [compound 90] (H-G[S5]GKF[S5]KSKKKFGKA[S5]VGE[S5]AKKGGE-NH2; staple 2-6, 16-20) | > 200 µg/mL | 32 µg/mL | 2 µg/mL | 2 µg/mL | 64 µg/mL | 4 µg/mL |
| CC(C)[C@@H]1NC(=O)[C@@](C)(NC(=O)[C@H](C)NC(=O)[C@H](CCCCN)NC(=O)[C@H](CO)NC(=O)[C@H](Cc2ccccc2)NC(=O)[C@H](CCCCN)NC(=O)[C@H](CCCCN)NC(=O)[C@H](CCCCN)NC(=O)[C@H](CCCCN)NC(=O)[C@H](CCCCN)NC(=O)[C@]2(C)CCCC=CCCC[C@](C)(NC(=O)CN)C(=O)NCC(=O)N[C@@H](CCCCN)C(=O)N[C@@H](Cc3ccccc3)C(=O)N2)CCCC=CCCC[C@@](C)(C(=O)N[C@@H](C)C(=O)N[C@@H](CCCCN)C(=O)N[C@@H](CCCCN)C(=O)NCC(=O)NCC(=O)N[C@@H](CCC(=O)O)C(N)=O)NC(=O)[C@H](CCC(=O)O)NC(=O)CNC1=O [compound 91] (H-G[S5]GKF[S5]KKKKKFSKA[S5]VGE[S5]AKKGGE-NH2; staple 2-6, 16-20) | > 200 µg/mL | >64 µg/mL | 64 µg/mL | 4 µg/mL | >64 µg/mL | 64 µg/mL |
| CC(C)[C@@H]1NC(=O)[C@@](C)(NC(=O)[C@H](CO)NC(=O)[C@H](CCCCN)NC(=O)CNC(=O)[C@H](Cc2ccccc2)NC(=O)[C@H](CCCCN)NC(=O)[C@H](CCCCN)NC(=O)[C@H](CCCCN)NC(=O)[C@H](CCCCN)NC(=O)[C@H](CCCCN)NC(=O)[C@]2(C)CCCC=CCCC[C@](C)(NC(=O)CN)C(=O)NCC(=O)N[C@@H](CCCCN)C(=O)N[C@@H](Cc3ccccc3)C(=O)N2)CCCC=CCCC[C@@](C)(C(=O)N[C@@H](C)C(=O)N[C@@H](CCCCN)C(=O)N[C@@H](CCCCN)C(=O)NCC(=O)NCC(=O)N[C@@H](CCC(=O)O)C(N)=O)NC(=O)[C@H](CCC(=O)O)NC(=O)CNC1=O [compound 92] (H-G[S5]GKF[S5]KKKKKFGKS[S5]VGE[S5]AKKGGE-NH2; staple 2-6, 16-20) | > 200 µg/mL | >64 µg/mL | 16 µg/mL | 4 µg/mL | >64 µg/mL | 16 µg/mL |
| CC(C)[C@@H]1NC(=O)[C@@](C)(NC(=O)[C@H](C)NC(=O)[C@H](CCCCN)NC(=O)CNC(=O)[C@H](Cc2ccccc2)NC(=O)[C@H](CCCCN)NC(=O)[C@H](CCCCN)NC(=O)[C@H](CCCCN)NC(=O)[C@H](CCCCN)NC(=O)[C@H](CCCCN)NC(=O)[C@]2(C)CCCC=CCCC[C@](C)(NC(=O)CN)C(=O)NCC(=O)N[C@@H](CCCCN)C(=O)N[C@@H](Cc3ccccc3)C(=O)N2)CCCC=CCCC[C@@](C)(C(=O)N[C@@H](C)C(=O)N[C@@H](CCCCN)C(=O)N[C@@H](CCCCN)C(=O)NCC(=O)NCC(=O)N[C@@H](CCC(=O)O)C(N)=O)NC(=O)[C@H](CCC(=O)O)NC(=O)[C@H](CO)NC1=O [compound 93] (H-G[S5]GKF[S5]KKKKKFGKA[S5]VSE[S5]AKKGGE-NH2; staple 2-6, 16-20) | > 200 µg/mL | 32 µg/mL | 1 µg/mL | 1 µg/mL | >64 µg/mL | 2 µg/mL |
| CC(C)[C@@H]1NC(=O)[C@@](C)(NC(=O)[C@H](C)NC(=O)[C@H](CCCCN)NC(=O)CNC(=O)[C@H](Cc2ccccc2)NC(=O)[C@H](CCCCN)NC(=O)[C@H](CCCCN)NC(=O)[C@H](CCCCN)NC(=O)[C@H](CCCCN)NC(=O)[C@H](CCCCN)NC(=O)[C@]2(C)CCCC=CCCC[C@](C)(NC(=O)CN)C(=O)NCC(=O)N[C@@H](CCCCN)C(=O)N[C@@H](Cc3ccccc3)C(=O)N2)CCCC=CCCC[C@@](C)(C(=O)N[C@@H](CO)C(=O)N[C@@H](CCCCN)C(=O)N[C@@H](CCCCN)C(=O)NCC(=O)NCC(=O)N[C@@H](CCC(=O)O)C(N)=O)NC(=O)[C@H](CCC(=O)O)NC(=O)CNC1=O [compound 94] (H-G[S5]GKF[S5]KKKKKFGKA[S5]VGE[S5]SKKGGE-NH2; staple 2-6, 16-20) | > 200 µg/mL | >64 µg/mL | 2 µg/mL | 4 µg/mL | 64 µg/mL | 8 µg/mL |
| C#CC[C@H](NC(=O)[C@H](CCC(=O)O)NC(=O)CNC(=O)CNC(=O)[C@H](CCCCN)NC(=O)[C@H](CCCCN)NC(=O)[C@H](C)NC(=O)[C@]1(C)CCCC=CCCC[C@](C)(NC(=O)[C@H](C)NC(=O)[C@H](CCCCN)NC(=O)CNC(=O)[C@H](Cc2ccccc2)NC(=O)[C@H](CCCCN)NC(=O)[C@H](CCCCN)NC(=O)[C@H](CCCCN)NC(=O)[C@H](CCCCN)NC(=O)[C@H](CCCCN)NC(=O)[C@]2(C)CCCC=CCCC[C@](C)(NC(=O)CN)C(=O)NCC(=O)N[C@@H](CCCCN)C(=O)N[C@@H](Cc3ccccc3)C(=O)N2)C(=O)N[C@@H](C(C)C)C(=O)NCC(=O)N[C@@H](CCC(=O)O)C(=O)N1)C(N)=O [compound 95] (H-G[S5]GKF[S5]KKKKKFGKA[S5]VGE[S5]AKKGGE[Pra]-NH2; staple 2-6, 16-20) | > 200 µg/mL | 64 µg/mL | 4 µg/mL | 2 µg/mL | >64 µg/mL | 4 µg/mL |

From patent publication US20240174723A1, “STAPLED ANTIMICROBIAL PEPTIDES (STAMPS) AND USES THEREOF” (Lytica Therapeutics, Inc., priority 2021, published 2024)
